What was measured:
Human M4 = target: T1, Human M4 (Homo sapiens, UniProt P08173); assay: mAChR M4 cell-based functional assay (calcium flux, potentiation of EC20 acetylcholine response in CHO-K1 hM4-Gqi5 cells); conditions: for Emax at 30 µM: CHO-K1, % ACh maximum at 30 μM, human M4; for EC50: positive allosteric modulator mode, EC20 acetylcholine, CHO-K1 cells with human M4 and Gqi5
T1 construct: expressed in transfected cells; host or cells: CHO-K1 (ATCC), stably expressing hM4 and Gqi5
T1 sequence (P08173 1-479): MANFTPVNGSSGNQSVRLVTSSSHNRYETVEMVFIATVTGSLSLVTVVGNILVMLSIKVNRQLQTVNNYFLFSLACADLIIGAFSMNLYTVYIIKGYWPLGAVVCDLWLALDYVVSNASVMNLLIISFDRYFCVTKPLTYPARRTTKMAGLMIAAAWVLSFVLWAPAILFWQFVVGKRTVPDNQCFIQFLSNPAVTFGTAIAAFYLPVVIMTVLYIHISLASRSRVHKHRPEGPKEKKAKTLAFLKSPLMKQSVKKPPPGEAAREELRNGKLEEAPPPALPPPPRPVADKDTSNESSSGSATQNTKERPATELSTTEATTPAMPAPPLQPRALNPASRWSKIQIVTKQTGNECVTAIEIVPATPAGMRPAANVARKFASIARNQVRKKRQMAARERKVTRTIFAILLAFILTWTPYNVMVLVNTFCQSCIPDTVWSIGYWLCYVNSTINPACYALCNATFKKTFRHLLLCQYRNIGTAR
Procedure: Human M4 cDNA, along with the chimeric G protein Gqi5, were transfected into Chinese hamster ovary (CHO—K1) cells purchased from the American Type Culture Collection using Lipofectamine2000. hM4-Gqi5 cells were grown in Ham's F-12 medium containing 10% heat-inactivated fetal bovine serum (FBS), 20 mM HEPES, 50 μg/mL G418 sulfate, and 500 μg/mL Hygromycin B. rM4-Gqi5 cells were grown in DMEM containing 10% heat-inactivated FBS, 20 mM HEPES, 400 μg/mL G418 sulfate, and 500 μg/mL Hygromycin B.
For high throughput measurement of agonist-evoked increases in intracellular calcium, CHO—K1 cells stably expressing muscarinic receptors were plated in growth medium lacking G418 and hygromycin at 15,000 cells/20 μL/well in Greiner 384-well black-walled, tissue culture (TC)-treated, clear-bottom plates (VWR). Cells were incubated overnight at 37° C. and 5% CO2. The next day, cells were washed using an ELX 405 (BioTek) with assay buffer; the final volume was then aspirated to 20 μL. Next, 20 μL of a 2.3 μM stock of Fluo-4/acetoxymethyl ester (Invitrogen, Carlsbad, Calif.), prepared as a 2.3 mM stock in DMSO and mixed in a 1:1 ratio with 10% (w/v) Pluronic F-127 and diluted in assay buffer, was added to the wells and the cell plates were incubated for 50 min at 37° C. and 5% CO2. Dye was removed by washing with the ELX 405 and the final volume was aspirated to 20 μL. Compound master plates were formatted in an 11 point concentration-response curve (CRC) format (1:3 dilutions) in 100% DMSO with a starting concentration of 10 mM using a BRAVO liquid handler (Agilent). Test compound CRCs were then transferred to daughter plates (240 nL) using the Echo acoustic plate reformatter (Labcyte, Sunnyvale, Calif.) and then diluted into assay buffer (40 μL) to a 2× stock using a Thermo Fisher Combi (Thermo Fisher Scientific, Waltham, Mass.).
Calcium flux was measured using the Functional Drug Screening System (FDSS) 6000 or 7000 (Hamamatsu Corporation, Tokyo, Japan) as an increase in the fluorescent static ratio. Compounds were applied to cells (20 μL, 2×) using the automated system of the FDSS at 2-4 seconds into the protocol and the data were collected at 1 Hz. At 144 seconds, 10 μL of an EC20 concentration of the muscarinic receptor agonist acetylcholine was added (5×), followed by the addition of 12 μL of an EC80 concentration of acetylcholine at the 230 second time point (5×). Agonist activity was analyzed as a concentration-dependent increase in calcium mobilization upon compound addition. Positive allosteric modulator activity was analyzed as a concentration-dependent increase in the EC20 acetylcholine response. With the acetylcholine EC20 set as baseline, the test compound EC50 is determined as the concentration that produces an increase above baseline of 50% of the maximum increase in acetylcholine response elicted by the test compound. Antagonist activity was analyzed as a concentration-dependent decrease in the EC80 acetylcholine response. Concentration-response curves were generated using a four-parameter logistical equation in XLFit curve fitting software (IDBS, Bridgewater, N.J.) for Excel (Microsoft, Redmond, Wash.) or Prism (GraphPad Software, Inc., San Diego, Calif.).
Compounds were synthesized as described above. Activity (EC50 and Emax) was determined in the mAChR M4 cell-based functional assay as described above and the data are shown in Table 3. The compound numbers correspond to the compound numbers used in Examples 2-4 and Tables 1 and 2.

[1] = patients treated with AChE inhibitors such as tacrine; cited from earlier work

Emax at 30 µM (Human M4)	EC50 (Human M4)	Compound	patients with elevated liver transaminases (hepatotoxicity) [1]
71.2%	> 10 µM	Cc1nnc2ccc(C(=O)NCc3ccc(C(C)(C)O)cc3)cc2c1C [Compound 16, N-[[4-(1-hydroxy-1-methyl-ethyl)phenyl]methyl]-3,4-dimethyl-cinnoline-6-carboxamide]	–
76.7%	> 10 µM	Cc1nnc2ccc(C(=O)NC3CN(c4ncc(C(F)(F)F)cn4)C3)cc2c1C [Compound 17, 3,4-dimethyl-N-[1-[5-(trifluoromethyl)pyrimidin-2-yl]azetidin-3-yl]cinnoline-6-carboxamide]	–
81.7%	0.74 µM	Cc1nnc2ccc(C(=O)NC3CN(c4ccc(F)c(F)c4)C3)cc2c1C [Compound 18, N-[1-(3,4-difluorophenyl)azetidin-3-yl]-3,4-dimethyl-cinnoline-6-carboxamide]	–
75.4%	> 10 µM	Cc1nnc2ccc(C(=O)NC3CN(c4ncc(F)cn4)C3)cc2c1C [Compound 19, N-[1-(5-fluoropyrimidin-2-yl)azetidin-3-yl]-3,4-dimethyl-cinnoline-6-carboxamide]	–
87.8%	3.2 µM	Cc1nnc2ccc(C(=O)NC3CN(c4ncc(OC(C)C)cn4)C3)cc2c1C [Compound 20, N-[1-(5-isopropoxypyrimidin-2-yl)azetidin-3-yl]-3,4-dimethyl-cinnoline-6-carboxamide]	–
77.8%	> 10 µM	Cc1nnc2ccc(C(=O)NC3CN(c4cnc(C(F)(F)F)cn4)C3)cc2c1C [Compound 21, 3,4-dimethyl-N-[1-[5-(trifluoromethyl)pyrazin-2-yl]azetidin-3-yl]cinnoline-6-carboxamide]	–
79.9%	2.51 µM	Cc1nnc2ccc(C(=O)NC3CN(c4cnc(C5CC5)cn4)C3)cc2c1C [Compound 22, N-[1-(5-cyclopropylpyrazin-2-yl)azetidin-3-yl]-3,4-dimethyl-cinnoline-6-carboxamide]	–
73.4%	1.27 µM	Cc1nnc2ccc(C(=O)NC3CN(c4ccc(Cl)cn4)C3)cc2c1C [Compound 23, N-[1-(5-chloro-2-pyridyl)azetidin-3-yl]-3,4-dimethyl-cinnoline-6-carboxamide]	–
79.2%	> 10 µM	Cc1nnc2ccc(C(=O)NC3CN(c4ccc(F)cn4)C3)cc2c1C [Compound 24, N-[1-(5-fluoro-2-pyridyl)azetidin-3-yl]-3,4-dimethyl-cinnoline-6-carboxamide]	–
80.6%	1.03 µM	Cc1nnc2ccc(C(=O)NC3CN(c4ccc(C#N)cn4)C3)cc2c1C [Compound 25, N-[1-(5-cyano-2-pyridyl)azetidin-3-yl]-3,4-dimethyl-cinnoline-6-carboxamide]	–
79.7%	0.46 µM	Cc1nnc2ccc(C(=O)NC3CN(c4ncc(F)cc4Cl)C3)cc2c1C [Compound 26, N-[1-(3-chloro-5-fluoro-2-pyridyl)azetidin-3-yl]-3,4-dimethyl-cinnoline-6-carboxamide]	–
77.2%	1.39 µM	Cc1nnc2ccc(C(=O)NC3CN(c4ncc(C5CC5)cc4Cl)C3)cc2c1C [Compound 27, N-[1-(3-chloro-5-cyclopropyl-2-pyridyl)azetidin-3-yl]-3,4-dimethyl-cinnoline-6-carboxamide]	–
75.7%	2.63 µM	Cc1nnc2ccc(C(=O)NC3CN(c4ncc(C(F)(F)F)cc4Cl)C3)cc2c1C [Compound 28, N-[1-[3-chloro-5-(trifluoromethyl)-2-pyridyl]azetidin-3-yl]-3,4-dimethyl-cinnoline-6-carboxamide]	–
71.6%	0.3 µM	Cc1nnc2ccc(C(=O)NC3CN(c4ncc(C#N)cc4Cl)C3)cc2c1C [Compound 29, N-[1-(3-chloro-5-cyano-2-pyridyl)azetidin-3-yl]-3,4-dimethyl-cinnoline-6-carboxamide]	–
91.6%	0.12 µM	Cc1nnc2ccc(C(=O)NC3CN(c4cc(Cl)ncc4Cl)C3)cc2c1C [Compound 30, N-[1-(2,5-dichloro-4-pyridyl)azetidin-3-yl]-3,4-dimethyl-cinnoline-6-carboxamide]	–
80.8%	1.46 µM	Cc1nnc2ccc(C(=O)NC3CN(c4ccc(OC(F)F)nc4)C3)cc2c1C [Compound 31, N-[1-[6-(difluoromethoxy)-3-pyridyl]azetidin-3-yl]-3,4-dimethyl-cinnoline-6-carboxamide]	–
77.2%	1.32 µM	Cc1nnc2ccc(C(=O)NC3CN(c4cccc(Cl)n4)C3)cc2c1C [Compound 32, N-[1-(6-chloro-2-pyridyl)azetidin-3-yl]-3,4-dimethyl-cinnoline-6-carboxamide]	–
84.5%	0.67 µM	Cc1nnc2ccc(C(=O)NC3CN(c4cccc(F)n4)C3)cc2c1C [Compound 33, N-[1-(6-fluoro-2-pyridyl)azetidin-3-yl]-3,4-dimethyl-cinnoline-6-carboxamide]	–
83.4%	1.22 µM	Cc1nnc2ccc(C(=O)NC3CN(c4ncccc4F)C3)cc2c1C [Compound 34, N-[1-(3-fluoro-2-pyridyl)azetidin-3-yl]-3,4-dimethyl-cinnoline-6-carboxamide]	–
83.7%	0.95 µM	Cc1nnc2ccc(C(=O)NC3CN(c4ncccc4Cl)C3)cc2c1C [Compound 35, N-[1-(3-chloro-2-pyridyl)azetidin-3-yl]-3,4-dimethyl-cinnoline-6-carboxamide]	–
82%	0.65 µM	Cc1nnc2ccc(C(=O)NC3CN(c4ncc(Cl)cc4F)C3)cc2c1C [Compound 36, N-[1-(5-chloro-3-fluoro-2-pyridyl)azetidin-3-yl]-3,4-dimethyl-cinnoline-6-carboxamide]	–
88%	0.75 µM	Cc1nnc2ccc(C(=O)NC3CN(c4ccnc(C(F)(F)F)c4)C3)cc2c1C [Compound 37, 3,4-dimethyl-N-[1-[2-(trifluoromethyl)-4-pyridyl]azetidin-3-yl]cinnoline-6-carboxamide]	–
64.2%	3.36 µM	Cc1nnc2ccc(C(=O)NC3CN(c4cccc(C(F)(F)F)n4)C3)cc2c1C [Compound 38, 3,4-dimethyl-N-[1-[6-(trifluoromethyl)-2-pyridyl]azetidin-3-yl]cinnoline-6-carboxamide]	–
82.6%	> 10 µM	Cc1nnc2ccc(C(=O)NC3CC3)cc2c1C [Compound 39, N-cyclopropyl-3,4-dimethyl-cinnoline-6-carboxamide]	–
59.3%	> 10 µM	Cc1nnc2ccc(C(=O)NC3CC(F)C3)cc2c1C (centres unmarked) [Compound 40, N-(3-fluorocyclobutyl)-3,4-dimethyl-cinnoline-6-carboxamide]	–
53.5%	> 10 µM	Cc1nnc2ccc(C(=O)NC3CCCC3)cc2c1C [Compound 41, N-cyclopentyl-3,4-dimethyl-cinnoline-6-carboxamide]	–
–	–	Nc1c2c(nc3ccccc13)CCCC2 [tacrine]	about 30%
